Data taken from ChEMBL document CHEMBL1201862, “PubChem BioAssay data set” (2004).
Each block holds one compound with its values, some of them ahead of it. The source made the active and inactive calls.

Columns and labels:
[1] = target: T1, Hexokinase-1 (Homo sapiens, UniProt P19367); assay: SAR analysis of small molecule inhibitors of hexokinase domain containing I (HKDC1) in the hexokinase 1 selectivity assay. [Related pubchem assays (depositor defined):AID493160, AID493190]; format: functional
T1 sequence (P19367 whole entry): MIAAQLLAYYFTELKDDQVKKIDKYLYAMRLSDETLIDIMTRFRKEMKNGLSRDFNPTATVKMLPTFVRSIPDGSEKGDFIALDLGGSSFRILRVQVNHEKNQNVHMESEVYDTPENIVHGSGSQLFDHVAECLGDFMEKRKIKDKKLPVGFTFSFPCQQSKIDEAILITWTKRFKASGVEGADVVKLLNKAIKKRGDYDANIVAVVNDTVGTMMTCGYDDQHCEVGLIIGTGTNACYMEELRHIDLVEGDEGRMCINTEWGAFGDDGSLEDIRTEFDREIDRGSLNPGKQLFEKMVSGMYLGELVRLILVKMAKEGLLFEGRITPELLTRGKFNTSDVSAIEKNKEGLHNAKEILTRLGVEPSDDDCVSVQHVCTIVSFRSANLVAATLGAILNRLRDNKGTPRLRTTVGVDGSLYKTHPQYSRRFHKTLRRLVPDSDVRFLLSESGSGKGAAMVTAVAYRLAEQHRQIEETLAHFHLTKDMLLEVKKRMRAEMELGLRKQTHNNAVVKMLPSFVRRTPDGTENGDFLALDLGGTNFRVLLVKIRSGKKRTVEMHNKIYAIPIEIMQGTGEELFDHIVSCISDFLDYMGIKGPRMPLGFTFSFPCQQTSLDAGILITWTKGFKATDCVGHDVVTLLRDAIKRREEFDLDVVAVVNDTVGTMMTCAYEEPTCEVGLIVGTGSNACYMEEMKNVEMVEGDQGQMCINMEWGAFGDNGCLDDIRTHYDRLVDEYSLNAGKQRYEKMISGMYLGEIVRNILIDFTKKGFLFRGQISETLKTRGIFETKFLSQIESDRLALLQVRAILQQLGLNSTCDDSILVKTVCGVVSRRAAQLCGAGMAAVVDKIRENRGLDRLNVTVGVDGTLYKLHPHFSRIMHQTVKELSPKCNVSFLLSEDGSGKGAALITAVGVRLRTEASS

[2] = target: T2, Hexokinase HKDC1 (Homo sapiens, UniProt Q2TB90); assay: SAR analysis of small molecule inhibitors of hexokinase domain containing I (HKDC1). [Related pubchem assays (depositor defined):AID493160, AID493190]; format: functional
T2 sequence (Q2TB90 whole entry): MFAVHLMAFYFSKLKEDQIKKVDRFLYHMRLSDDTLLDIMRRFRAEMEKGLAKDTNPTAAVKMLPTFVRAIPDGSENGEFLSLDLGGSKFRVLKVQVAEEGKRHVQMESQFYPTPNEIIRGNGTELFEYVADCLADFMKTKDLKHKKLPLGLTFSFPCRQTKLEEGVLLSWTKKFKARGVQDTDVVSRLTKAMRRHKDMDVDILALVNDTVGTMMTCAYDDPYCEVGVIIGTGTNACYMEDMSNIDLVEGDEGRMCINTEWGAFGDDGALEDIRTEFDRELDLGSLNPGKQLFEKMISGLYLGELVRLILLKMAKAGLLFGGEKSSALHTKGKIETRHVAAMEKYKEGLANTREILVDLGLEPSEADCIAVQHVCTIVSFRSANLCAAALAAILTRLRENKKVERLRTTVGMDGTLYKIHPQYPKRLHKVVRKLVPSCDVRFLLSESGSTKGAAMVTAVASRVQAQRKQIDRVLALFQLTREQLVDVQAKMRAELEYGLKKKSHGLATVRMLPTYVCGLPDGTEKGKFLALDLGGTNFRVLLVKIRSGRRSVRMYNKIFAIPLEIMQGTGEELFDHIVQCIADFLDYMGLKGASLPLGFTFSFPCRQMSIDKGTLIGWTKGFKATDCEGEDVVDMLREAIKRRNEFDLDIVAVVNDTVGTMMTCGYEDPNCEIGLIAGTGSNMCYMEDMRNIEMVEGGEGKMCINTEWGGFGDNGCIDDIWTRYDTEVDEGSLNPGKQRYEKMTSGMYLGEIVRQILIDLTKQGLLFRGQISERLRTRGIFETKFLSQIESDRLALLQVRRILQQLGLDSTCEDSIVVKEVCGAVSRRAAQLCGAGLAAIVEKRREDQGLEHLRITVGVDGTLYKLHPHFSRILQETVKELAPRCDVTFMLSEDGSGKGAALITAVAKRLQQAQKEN

[3] = target: SUMO-activating enzyme (Homo sapiens, UniProt Q9UBT2); assay: SUMOylation inhibitor hit validation, confirmation, SUMOylation inhibitor project, biochemical, AlphaScreen (AID 2018); format: functional
SUMO-activating enzyme, sequence (Q9UBE0 whole entry): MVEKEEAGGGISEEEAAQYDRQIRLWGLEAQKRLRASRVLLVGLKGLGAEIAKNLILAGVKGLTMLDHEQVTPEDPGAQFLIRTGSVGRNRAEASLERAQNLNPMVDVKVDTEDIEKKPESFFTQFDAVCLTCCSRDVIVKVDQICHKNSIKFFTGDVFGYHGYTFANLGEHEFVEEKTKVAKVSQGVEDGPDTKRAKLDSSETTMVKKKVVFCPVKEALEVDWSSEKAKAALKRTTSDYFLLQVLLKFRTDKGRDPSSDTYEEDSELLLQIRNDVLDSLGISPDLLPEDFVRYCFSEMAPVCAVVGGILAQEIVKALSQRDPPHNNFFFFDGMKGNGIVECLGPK
SUMO-activating enzyme, sequence (Q9UBT2 whole entry): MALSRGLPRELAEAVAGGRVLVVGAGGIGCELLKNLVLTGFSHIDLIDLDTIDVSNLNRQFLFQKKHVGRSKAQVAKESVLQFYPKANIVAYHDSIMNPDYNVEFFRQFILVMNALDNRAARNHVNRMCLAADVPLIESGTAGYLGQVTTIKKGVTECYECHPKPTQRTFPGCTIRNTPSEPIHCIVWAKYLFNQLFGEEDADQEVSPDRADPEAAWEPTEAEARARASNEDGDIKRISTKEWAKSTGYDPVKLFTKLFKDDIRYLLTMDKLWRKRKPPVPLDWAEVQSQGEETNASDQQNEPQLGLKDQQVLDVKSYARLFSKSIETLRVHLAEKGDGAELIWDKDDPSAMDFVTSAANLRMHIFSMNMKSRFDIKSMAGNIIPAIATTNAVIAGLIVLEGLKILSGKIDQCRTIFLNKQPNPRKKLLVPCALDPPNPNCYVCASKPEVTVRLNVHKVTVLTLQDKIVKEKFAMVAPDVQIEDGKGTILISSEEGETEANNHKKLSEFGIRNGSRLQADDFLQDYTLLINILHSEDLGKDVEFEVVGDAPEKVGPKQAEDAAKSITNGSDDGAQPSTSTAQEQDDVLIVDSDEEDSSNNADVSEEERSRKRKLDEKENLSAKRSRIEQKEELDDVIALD

[4] = Shn3 3'UTR reporter inhibitors, dose response, cell-based, Clone20 osteoblasts, firefly luciferase, cherry-picked (AID 624132); format: functional;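 also: firefly luciferase luminescence from reporter carrying the Shn3 3'UTR in osteoblasts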
[5] = target: T3, Nucleotide-binding oligomerization domain-containing protein 1 (Homo sapiens, UniProt Q9Y239); assay: NOD1 signaling inhibitors, SAR follow-up, revised (AID 2333); format: functional
T3 sequence (Q9Y239 whole entry): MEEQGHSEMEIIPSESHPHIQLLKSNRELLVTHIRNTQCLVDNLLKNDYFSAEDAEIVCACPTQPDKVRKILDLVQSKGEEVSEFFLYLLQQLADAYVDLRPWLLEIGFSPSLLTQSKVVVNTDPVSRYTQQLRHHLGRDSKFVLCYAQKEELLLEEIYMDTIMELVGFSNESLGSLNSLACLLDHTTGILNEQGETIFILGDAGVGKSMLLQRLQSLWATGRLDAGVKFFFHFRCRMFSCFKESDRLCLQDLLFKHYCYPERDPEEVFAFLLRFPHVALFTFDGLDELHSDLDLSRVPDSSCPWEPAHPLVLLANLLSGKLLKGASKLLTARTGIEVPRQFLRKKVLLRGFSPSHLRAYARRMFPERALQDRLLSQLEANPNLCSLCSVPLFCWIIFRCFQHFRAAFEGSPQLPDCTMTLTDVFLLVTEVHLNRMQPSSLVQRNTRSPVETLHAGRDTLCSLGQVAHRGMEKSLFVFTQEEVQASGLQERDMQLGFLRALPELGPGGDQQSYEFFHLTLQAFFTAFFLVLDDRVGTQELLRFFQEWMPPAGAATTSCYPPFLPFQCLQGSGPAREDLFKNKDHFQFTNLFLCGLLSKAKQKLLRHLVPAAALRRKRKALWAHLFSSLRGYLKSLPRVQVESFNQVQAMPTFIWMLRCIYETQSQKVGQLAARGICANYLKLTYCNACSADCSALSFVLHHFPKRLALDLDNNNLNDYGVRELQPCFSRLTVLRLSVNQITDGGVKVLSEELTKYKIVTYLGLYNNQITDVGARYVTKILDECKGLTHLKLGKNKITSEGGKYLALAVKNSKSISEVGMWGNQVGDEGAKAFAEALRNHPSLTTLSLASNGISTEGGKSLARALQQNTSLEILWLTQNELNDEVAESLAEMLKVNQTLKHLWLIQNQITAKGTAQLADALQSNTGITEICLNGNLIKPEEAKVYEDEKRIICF

[6] = target: T4, COUP transcription factor 2 (Homo sapiens, UniProt P24468); assay: Luminescence-based cell-based high throughput dose response assay to identify inhibitors of COUP-TFII (NR2F2).; format: functional;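 also: HEK293 cells transiently cotransfected with COUP-TFII expression vector and reporter; luciferase reporter luminescence driven by COUP-TFII from the pX2-168 reporter plasmid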
T4 sequence (P24468 whole entry): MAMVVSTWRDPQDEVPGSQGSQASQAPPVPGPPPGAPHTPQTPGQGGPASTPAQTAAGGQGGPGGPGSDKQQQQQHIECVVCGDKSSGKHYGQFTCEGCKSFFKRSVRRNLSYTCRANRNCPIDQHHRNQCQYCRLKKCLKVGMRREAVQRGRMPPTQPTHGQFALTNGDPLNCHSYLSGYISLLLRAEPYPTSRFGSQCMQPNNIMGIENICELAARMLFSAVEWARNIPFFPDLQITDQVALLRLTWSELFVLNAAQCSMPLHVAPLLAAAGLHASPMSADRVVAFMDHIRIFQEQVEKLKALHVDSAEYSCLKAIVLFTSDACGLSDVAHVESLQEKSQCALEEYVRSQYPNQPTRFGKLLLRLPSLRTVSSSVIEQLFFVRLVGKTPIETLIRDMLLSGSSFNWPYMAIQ

[7] = target: Tumor necrosis factor (Homo sapiens, UniProt P01375); assay: TNFa-triggered NF-kB activation inhibitors, SAR follow-up, cell-based, revised (AID 2337); format: functional
Tumor necrosis factor, sequence (P01375 whole entry): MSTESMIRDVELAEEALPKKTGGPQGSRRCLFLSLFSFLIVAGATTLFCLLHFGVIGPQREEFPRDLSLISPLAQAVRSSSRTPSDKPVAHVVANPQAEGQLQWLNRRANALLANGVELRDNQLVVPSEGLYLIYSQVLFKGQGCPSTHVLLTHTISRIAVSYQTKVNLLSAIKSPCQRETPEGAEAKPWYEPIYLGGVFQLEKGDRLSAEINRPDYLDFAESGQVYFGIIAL

[8] = tested on: HEK293; assay: cells; conditions: Homo sapiens
[9] = control 3'UTR Renilla luciferase suppression, dose response, counter-screen for Shn3 inhibitor project, cell-based, Clone20-Shn3RL, cherry-picked (AID 624133); format: functional
[10] = tested on: INS1; assay: beta cell apoptosis inhibitors, cytokine rescue, dose response, luminescence, retest (AID 449756); format: functional, cell-based; conditions: Rattus norvegicus;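 also: cell death triggered by IL-1 beta plus TNF-alpha plus IFN-gamma mixture; protective hits raise ATP signal compared with cytokine alone wells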
[11] = target: Cytochrome P450 2D6 (Homo sapiens, UniProt P10635);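 also: CYP2D6 member of a cytochrome P450 panel assay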
Cytochrome P450 2D6, sequence (P10635 whole entry): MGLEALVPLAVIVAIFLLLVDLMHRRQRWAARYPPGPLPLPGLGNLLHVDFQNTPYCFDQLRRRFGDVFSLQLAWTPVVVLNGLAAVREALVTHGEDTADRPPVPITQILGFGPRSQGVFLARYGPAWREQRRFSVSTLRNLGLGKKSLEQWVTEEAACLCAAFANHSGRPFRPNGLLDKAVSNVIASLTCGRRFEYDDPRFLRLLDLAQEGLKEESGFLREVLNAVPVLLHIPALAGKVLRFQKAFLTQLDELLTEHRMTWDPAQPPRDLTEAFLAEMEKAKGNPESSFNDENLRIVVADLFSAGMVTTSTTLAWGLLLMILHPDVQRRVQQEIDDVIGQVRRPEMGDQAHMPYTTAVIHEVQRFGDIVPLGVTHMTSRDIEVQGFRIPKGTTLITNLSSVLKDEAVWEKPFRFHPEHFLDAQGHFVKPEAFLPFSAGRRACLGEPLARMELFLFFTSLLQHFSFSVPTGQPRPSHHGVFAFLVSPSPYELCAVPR

[12] = target: Cytochrome P450 2C9 (Homo sapiens, UniProt P11712)
Cytochrome P450 2C9, sequence (P11712 whole entry): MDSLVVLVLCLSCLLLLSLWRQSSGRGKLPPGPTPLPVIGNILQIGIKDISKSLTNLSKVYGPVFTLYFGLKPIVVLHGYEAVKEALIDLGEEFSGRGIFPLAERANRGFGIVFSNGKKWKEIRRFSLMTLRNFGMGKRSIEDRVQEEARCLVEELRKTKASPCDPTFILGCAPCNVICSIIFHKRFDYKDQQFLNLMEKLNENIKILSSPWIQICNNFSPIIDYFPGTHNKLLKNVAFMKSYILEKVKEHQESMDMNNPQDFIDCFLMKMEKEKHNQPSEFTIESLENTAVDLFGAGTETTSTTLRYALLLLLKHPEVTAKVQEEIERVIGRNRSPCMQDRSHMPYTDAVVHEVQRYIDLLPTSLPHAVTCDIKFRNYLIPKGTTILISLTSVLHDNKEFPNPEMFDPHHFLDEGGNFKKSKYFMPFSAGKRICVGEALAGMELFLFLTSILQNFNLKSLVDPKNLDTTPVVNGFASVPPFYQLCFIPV

[13] = tested on: HEK293; assay: NOD2 signaling inhibitors in MDP-stimulated cells, cell-based, uHTS, luminescence (AID 2001); format: functional; conditions: Homo sapiens
[14] = tested on: HEK293; assay: NOD1 signaling inhibitors, primary screen, cell-based, luminescence, uHTS (AID 1578); format: functional; conditions: Homo sapiens
[15] = tested on: HEK293; assay: cells; format: functional, cell-based; conditions: Homo sapiens
[16] = tested on: HEK293; assay: cells; format: functional, cell-based; conditions: Homo sapiens; remark: listed apart in the source
[17] = tested on: HEK293; assay: cells; format: functional, cell-based; conditions: Homo sapiens; remark: listed apart in the source
[18] = target: Cytochrome P450 2C19 (Homo sapiens, UniProt P33261); assay: Cytochrome panel assay with activity outcomes. Panel member name: p450-cyp2c19 Compounds with AC50 equal or less than 10 uM are considered active; format: functional; conditions: read-out: AC50
Cytochrome P450 2C19, sequence (P33261 whole entry, the tested form may be a part): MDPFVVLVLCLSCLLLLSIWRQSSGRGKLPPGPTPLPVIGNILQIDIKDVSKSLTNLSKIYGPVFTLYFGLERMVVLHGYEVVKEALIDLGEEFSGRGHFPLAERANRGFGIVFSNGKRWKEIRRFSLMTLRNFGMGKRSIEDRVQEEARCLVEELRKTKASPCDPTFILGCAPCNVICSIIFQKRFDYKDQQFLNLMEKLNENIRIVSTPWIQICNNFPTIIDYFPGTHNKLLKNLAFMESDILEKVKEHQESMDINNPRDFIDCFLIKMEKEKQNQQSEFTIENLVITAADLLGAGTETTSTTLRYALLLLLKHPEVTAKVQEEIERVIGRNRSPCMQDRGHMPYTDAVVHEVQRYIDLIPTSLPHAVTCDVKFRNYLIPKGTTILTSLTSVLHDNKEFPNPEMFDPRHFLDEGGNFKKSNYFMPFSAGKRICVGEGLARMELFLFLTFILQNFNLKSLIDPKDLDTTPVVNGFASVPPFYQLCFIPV

[19] = target: Nucleotide-binding oligomerization domain-containing protein 2 (Homo sapiens, UniProt Q9HC29); assay: NOD2 signaling inhibitors, cell-based, luminescence, uHTS, HEK293 (AID 1566); format: functional
Nucleotide-binding oligomerization domain-containing protein 2, sequence (Q9HC29 whole entry, the tested form may be a part): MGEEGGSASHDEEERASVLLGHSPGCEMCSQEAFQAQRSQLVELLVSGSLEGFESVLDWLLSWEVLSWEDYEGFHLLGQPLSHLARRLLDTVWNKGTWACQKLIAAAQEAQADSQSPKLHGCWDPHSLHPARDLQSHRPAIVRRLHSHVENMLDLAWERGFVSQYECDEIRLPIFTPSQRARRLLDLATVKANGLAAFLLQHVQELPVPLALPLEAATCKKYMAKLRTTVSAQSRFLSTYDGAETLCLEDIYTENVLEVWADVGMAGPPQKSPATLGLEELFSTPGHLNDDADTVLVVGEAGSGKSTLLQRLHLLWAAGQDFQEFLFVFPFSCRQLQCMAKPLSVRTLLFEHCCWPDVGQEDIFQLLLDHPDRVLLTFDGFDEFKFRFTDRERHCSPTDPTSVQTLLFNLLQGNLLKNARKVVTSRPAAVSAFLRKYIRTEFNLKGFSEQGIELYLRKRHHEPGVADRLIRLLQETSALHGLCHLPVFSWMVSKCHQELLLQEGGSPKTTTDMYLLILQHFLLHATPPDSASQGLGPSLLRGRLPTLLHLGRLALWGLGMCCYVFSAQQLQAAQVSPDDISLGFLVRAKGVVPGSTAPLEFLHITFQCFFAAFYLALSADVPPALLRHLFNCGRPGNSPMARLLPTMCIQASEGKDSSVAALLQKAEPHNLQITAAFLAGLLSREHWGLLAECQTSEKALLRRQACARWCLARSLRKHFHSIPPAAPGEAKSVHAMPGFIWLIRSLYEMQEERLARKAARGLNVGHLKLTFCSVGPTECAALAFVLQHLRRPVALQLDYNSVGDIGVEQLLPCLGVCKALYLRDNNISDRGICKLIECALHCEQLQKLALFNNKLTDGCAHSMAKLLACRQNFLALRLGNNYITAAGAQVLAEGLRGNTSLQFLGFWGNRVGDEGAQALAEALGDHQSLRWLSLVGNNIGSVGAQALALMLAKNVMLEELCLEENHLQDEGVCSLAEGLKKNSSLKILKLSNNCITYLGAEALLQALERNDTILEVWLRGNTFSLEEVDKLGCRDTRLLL

IC50 [1]: > 80 µM (inactive) | IC50 [2]: > 80 µM (inactive)
Structure (SMILES): O=c1c2ccccc2nc(/C=C/c2ccccc2)n1CCc1ccccc1

IC50 [3]: 41.3 µM (active)
Structure (SMILES): Cc1cc(OC(C(=O)O)c2ccccc2)c2c(C)c(Cc3ccccc3)c(=O)oc2c1 (stereo not drawn)

Structure (SMILES): Cc1cc(C(=O)NC2CCCc3c2cnn3-c2ccc(C)c(C)c2)n(C)n1 (stereo not drawn)
AC50 [4]: < 0.26 µM (active) | IC50 [5]: 0.0431 µM (active) | IC50 [6]: > 0.117 µM (active) | IC50 [7]: 0.0793 µM (active) | IC50 [8]: > 20 µM (inactive) | AC50 [9]: < 0.26 µM (active) | AC50 [10]: 0.24 µM (active)

AC50 [11]: inconclusive | AC50 [12]: 5.01 µM (inconclusive)
Structure (SMILES): C/C(=N/NC(=O)c1ccc(NC(=O)c2ccc(F)cc2)cc1)c1ccccc1

Structure (SMILES): Cc1nn(-c2ccccc2)c2nc(C(Cl)(Cl)Cl)nc(O)c12
IC50 [13]: 17.9 µM (inactive) | EC50 [14]: 12.4 µM (active) | IC50 [15]: > 20 µM (inactive) | IC50 [8]: > 20 µM (inactive) | IC50 [16]: > 20 µM (inactive) | IC50 [17]: > 20 µM (inactive)

IC50 [6]: 13.8 µM (inactive)
Structure (SMILES): NC(=O)c1ccsc1NC(=O)COC(=O)Cc1cccc2ccccc12

AC50 [11]: inconclusive
Structure (SMILES): CO/N=C(/C)CCC(=O)OC[C@@H]1O[C@H](C#Cc2ccccc2)C=C[C@@H]1Oc1ccc(C)cc1

AC50 [18]: 20 µM (inconclusive) | AC50 [11]: inconclusive
Structure (SMILES): O=C(CCN1C(=O)C2C3C=CC(C3)C2C1=O)Nc1ccc2ncccc2c1 (stereo not drawn)

IC50 [6]: 5.62 µM (active)
Structure (SMILES): CCN(CC)S(=O)(=O)c1cccc(NC(=O)COC(=O)c2[nH]c(C)c(C(C)=O)c2C)c1

AC50 [11]: inconclusive
Structure (SMILES): CO[C@H]1COC(=O)[C@@H](Cc2ccccc2)NC(=O)[C@@H](C)COC(=O)CCC[C@@H]1C

IC50 [1]: > 80 µM (inactive) | IC50 [2]: > 80 µM (inactive)
Structure (SMILES): Cc1ccc(C)c(S(=O)(=O)Nc2cccc3ccccc23)c1

AC50 [11]: inconclusive
Structure (SMILES): CC(C)[C@](N)(C(=O)O)c1ccccc1

IC50 [1]: > 80 µM (inactive) | IC50 [2]: 15.6 µM (active)
Structure (SMILES): O=S(=O)(Nc1ccc(O)c2ccccc12)c1ccc(Cl)cc1

Structure (SMILES): O=C(c1ccc(S(=O)(=O)c2cccc(Cl)c2)c([N+](=O)[O-])c1)N1CCN(c2ccccn2)CC1
IC50 [13]: 1.95 µM (active) | IC50 [5]: 1.4 µM (active) | EC50 [14]: 10.1 µM (active) | IC50 [15]: > 20 µM (inactive) | IC50 [7]: 4.43 µM (active) | IC50 [8]: 8.21 µM (active) | IC50 [16]: 10.4 µM (active) | EC50 [19]: 12.3 µM (active) | IC50 [17]: 1.72 µM (active)
